Counter-ions that a name gives are not always drawn.
target: T1, TAFIa (purified human TAFI activated by thrombin-thrombomodulin complex) (Homo sapiens, UniProt Q96IY4); test: Inhibition of TAFIa (chromogenic substrate, TAFI Activity Kit); format: biochemical; conditions: 3.2 nM TAFIa; compound incubated 5 minutes at 20° C., chromogenic substrate 30 minutes at 37° C., OD at 490 nm; read-out: IC50 (concentration which inhibits 50% of the enzymatic activity of TAFIa)
T1 construct: purchased American Diagnostica TAFI Activity Kit (catalogue number not given)
T1 sequence (Q96IY4 115-423): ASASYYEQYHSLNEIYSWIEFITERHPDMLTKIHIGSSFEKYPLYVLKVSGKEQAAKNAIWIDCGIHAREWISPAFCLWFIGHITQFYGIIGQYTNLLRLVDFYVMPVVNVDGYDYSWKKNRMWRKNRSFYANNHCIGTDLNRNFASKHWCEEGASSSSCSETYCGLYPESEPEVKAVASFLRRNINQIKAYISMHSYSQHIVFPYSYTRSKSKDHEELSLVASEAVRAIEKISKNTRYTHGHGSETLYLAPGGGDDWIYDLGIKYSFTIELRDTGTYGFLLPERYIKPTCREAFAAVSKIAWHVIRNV
Method: Purified human TAFI (25 ng) is activated by adding thrombin-thrombomodulin complex in the presence of calcium chloride. After incubating for 20 minutes at 20° C., the reaction is stopped by adding the irreversible thrombin inhibitor PPACK (TAFI Activity Kit, American Diagnostica).
The compound under test is added to the (3.2 nM) TAFIa solution and incubated for 5 minutes at 20° C. A chromogenic TAFIa substrate is added and then incubated for 30 minutes at 37° C. The enzymatic reaction is stopped by adding sulphuric acid (TAFI Activity Kit, American Diagnostica). The optical density (OD) of the solution is measured at 490 nm with the aid of a spectrophotometer (Spectramax, Molecular Devices). The OD value of a well containing the reagents without the TAFI is subtracted from each of the OD values measured. The percentage inhibition of TAFIa at a given concentration of the compound under test is determined using the following formula: % inhibition=100−[(OD of compound×100)/OD of carrier]
The concentration of compound of the invention which inhibits 50% of the enzymatic activity of TAFIa (IC50) is calculated from the inhibition percentages of the OD values measured for increasing concentrations of the compound under test using non-linear regression according to a sigmoidal four-parameter equation (effect-dose).

IC50 [nM] | SMILES
178 ± 11 | NCCCCC1(C(=O)O)CCCC1S (single isomer, unassigned) [Example 8, 1-(4-Aminobutyl)-2-mercaptocyclopentanecarboxylic acid trifluoroacetate (racemic cis diastereoisomer)]
184 ± 22 | O=C(O)[C@@]1(CC2CCNCC2)CCC[C@H]1S (single isomer, unassigned) [Example 13, 2-Mercapto-1-(piperidin-4-ylmethyl)-cyclopentanecarboxylic acid trifluoroacetate (racemic cis diastereoisomer)]
81 ± 16 | NCCCC[C@]1(C(=O)O)CCC[C@H]1S (single isomer, unassigned; enantiomer 2) [Example 10, 1-(4-Aminobutyl)-2-mercaptocyclopentanecarboxylic acid trifluoroacetate (cis diastereoisomer, enantiomer 2)]
6.7 ± 0.6 | NCCC[C@@]1(C(=O)O)CCC[C@@H]1S [Example 1, (1R,2S)-1-(3-Aminopropyl)-2-mercaptocyclopentanecarboxylic acid trifluoroacetate]
22 ± 6 | CC(=O)S[C@H]1CCC[C@@]1(CCCN)C(=O)O [Example 2, (1R,2S)-2-Acetylthio-1-(3-aminopropyl)-cyclopentanecarboxylic acid hydrochloride]
7.4 ± 1.1 | NCCC[C@@]1(C(=O)O)CCC[C@@H]1S [Example 3, (1R,2S)-1-(3-Aminopropyl)-2-mercaptocyclopentanecarboxylic acid hydrochloride]
186 ± 26 | NCCC[C@@]1(C(=O)O)CCC[C@@H]1SS[C@H]1CCC[C@@]1(CCCN)C(=O)O [Example 20, (1R,2S,1′R,2′S)-2,2′-Disulphanediylbis[1-(3-aminopropyl)cyclopentane-carboxylic acid]dihydrochloride]

SMILES | IC50 [nM]
NCCCC1(C(=O)O)CCCC1S (single isomer, unassigned) [Example 6, 1-(3-Aminopropyl)-2-mercaptocyclopentanecarboxylic acid trifluoroacetate (racemic cis diastereoisomer)] | 14 ± 2
